# Tests used:
# [1] = molecular target: CYP2C9 (Homo sapiens, UniProt P11712); experiment: direct CYP inhibition; format: in vitro ADME
# [2] = molecular target: T1, P-gp (Homo sapiens, UniProt P08183); format: in vitro ADME
# T1 construct: In a bidirectional permeability study with Caco-2 cell lines; endogenous in cells; host or cells: Caco-2
# [3] = pharmacokinetics after single dose of sitravatinib free base capsules; format: in vivo
# [4] = tested on: CYP enzymes; experiment: time- or metabolism-dependent CYP inhibition; format: in vitro ADME
# [5] = tested on: human tumor xenograft models; experiment: human tumor xenograft models; conditions: mice, broad spectrum of models
# [6] = tested on: target RTKs; experiment: cell-based assays of phosphorylation and kinase dependent function
# [7] = molecular target: T2, BCRP (Homo sapiens, UniProt Q9UNQ0); format: in vitro ADME
# T2 construct: In a bidirectional permeability study with Caco-2 cell lines; endogenous in cells; host or cells: Caco-2
# [8] = tested on: target RTKs; experiment: oncogenic functions: MET-dependent cell viability and migration, endothelial tube formation and angiogenesis; conditions: endothelial tube formation, angiogenesis
# [9] = in vivo; set-up: species or system dogs; conditions: dog
# [10] = neurological functional observation battery and respiratory evaluations; format: in vivo; conditions: rats, doses up to 25 mg/kg
# [11] = molecular target: CYP2A6 (Homo sapiens, UniProt P11509); experiment: direct CYP inhibition; format: in vitro ADME
# CYP2A6, sequence (P11509 whole entry): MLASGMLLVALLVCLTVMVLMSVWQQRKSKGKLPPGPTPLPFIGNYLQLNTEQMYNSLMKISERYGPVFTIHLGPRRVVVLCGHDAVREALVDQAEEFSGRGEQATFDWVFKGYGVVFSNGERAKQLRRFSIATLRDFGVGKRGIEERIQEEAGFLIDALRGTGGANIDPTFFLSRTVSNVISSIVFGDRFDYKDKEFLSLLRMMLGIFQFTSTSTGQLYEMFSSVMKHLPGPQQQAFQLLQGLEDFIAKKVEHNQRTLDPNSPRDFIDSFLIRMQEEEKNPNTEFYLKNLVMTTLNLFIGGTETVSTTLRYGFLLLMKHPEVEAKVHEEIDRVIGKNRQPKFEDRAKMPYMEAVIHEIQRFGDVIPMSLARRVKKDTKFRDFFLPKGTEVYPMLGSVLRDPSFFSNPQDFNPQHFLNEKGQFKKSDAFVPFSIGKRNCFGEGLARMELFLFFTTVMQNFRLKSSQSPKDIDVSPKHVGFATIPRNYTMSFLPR
# [12] = molecular target: CYP2D6 (Homo sapiens, UniProt P10635); experiment: direct CYP inhibition; format: in vitro ADME
# [13] = tested on: MET, Axl, MERTK, VEGFR family, PDGFR family, KIT, FLT3, Trk family, RET, DDR2, and selected Eph family members
# [14] = molecular target: CYP2E1 (Homo sapiens, UniProt P05181); experiment: direct CYP inhibition; format: in vitro ADME
# [15] = molecular target: CYP2C8 (Homo sapiens, UniProt P10632); experiment: direct CYP inhibition; format: in vitro ADME
# CYP2C8, sequence (P10632 whole entry): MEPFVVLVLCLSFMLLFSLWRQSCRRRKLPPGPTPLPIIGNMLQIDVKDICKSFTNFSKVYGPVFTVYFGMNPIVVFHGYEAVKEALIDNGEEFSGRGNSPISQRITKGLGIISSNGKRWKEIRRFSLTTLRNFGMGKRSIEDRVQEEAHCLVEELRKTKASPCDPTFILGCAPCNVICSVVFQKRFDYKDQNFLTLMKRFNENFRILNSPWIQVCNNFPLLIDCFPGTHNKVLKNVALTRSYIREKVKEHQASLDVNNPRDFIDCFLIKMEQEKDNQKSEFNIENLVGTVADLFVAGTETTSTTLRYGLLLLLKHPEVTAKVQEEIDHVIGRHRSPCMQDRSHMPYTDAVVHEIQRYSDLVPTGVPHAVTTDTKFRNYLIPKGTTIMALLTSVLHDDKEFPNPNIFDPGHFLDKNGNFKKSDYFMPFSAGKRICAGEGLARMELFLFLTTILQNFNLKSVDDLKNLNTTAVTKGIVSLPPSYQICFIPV
# [16] = tested on: human plasma proteins; format: in vitro ADME
# [17] = molecular target: CYP2C19 (Homo sapiens, UniProt P33261); experiment: direct CYP inhibition; format: in vitro ADME
# [18] = molecular target: T3, Breast Cancer Resistance Protein (BCRP) (Homo sapiens, UniProt Q9UNQ0); experiment: BCRP substrate assessment in Caco-2 bidirectional permeability study; format: in vitro ADME
# T3 construct: In a bidirectional permeability study with Caco-2 cell lines; endogenous in cells; host or cells: Caco-2
# [19] = tested on: Caco-2 cell lines; experiment: bidirectional permeability study with Caco-2 cell lines; format: in vitro ADME; conditions: Caco-2 bidirectional
# [20] = molecular target: hERG (Homo sapiens, UniProt Q12809); experiment: hERG assay (in vitro); format: cell-based; conditions: read-out: IC50 on the potassium current
# [21] = tested on: RET, CBL, CHR4q12, DDR and Trk; conditions: cited from earlier work
# [22] = tested on: PD-L1 on tumor cells; experiment: PD-L1 expression on tumor cells in vitro and in vivo; format: cell-based
# From the text: (§1) Receptor tyrosine kinases (RTKs) are key regulators of signaling pathways leading to cell growth, survival, and migration. These kinases are dysregulated in many cancers through overexpression, genetic alteration or co-expression with high affinity ligands. Multiple sitravatinib RTK targets are genetically altered in a variety of cancers and act as oncogenic drivers, promoting cancer development and progression.
# [23] = molecular target: CYP1A2 (Homo sapiens, UniProt P05177); experiment: direct CYP inhibition; format: in vitro ADME
# CYP1A2, sequence (P05177 whole entry): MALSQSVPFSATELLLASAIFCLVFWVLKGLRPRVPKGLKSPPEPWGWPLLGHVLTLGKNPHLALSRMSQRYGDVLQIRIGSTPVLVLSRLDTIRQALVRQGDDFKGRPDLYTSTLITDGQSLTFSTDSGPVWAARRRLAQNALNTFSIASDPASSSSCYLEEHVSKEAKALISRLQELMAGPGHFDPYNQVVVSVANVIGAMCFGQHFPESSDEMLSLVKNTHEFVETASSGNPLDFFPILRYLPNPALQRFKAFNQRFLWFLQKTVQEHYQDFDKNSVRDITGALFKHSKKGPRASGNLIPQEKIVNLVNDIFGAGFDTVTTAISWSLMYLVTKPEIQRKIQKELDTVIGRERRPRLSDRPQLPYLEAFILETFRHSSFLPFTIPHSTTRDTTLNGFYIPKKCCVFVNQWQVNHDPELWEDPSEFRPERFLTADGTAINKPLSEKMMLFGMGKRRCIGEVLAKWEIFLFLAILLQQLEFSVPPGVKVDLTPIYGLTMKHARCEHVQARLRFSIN
# [24] = tested on: systemic/spleen T lymphocytes and MDSCs; experiment: pilot studies in syngeneic mouse tumor models (immune cells); format: in vivo
# From the text: as §1
# [25] = tested on: cytochrome P-450; format: in vitro ADME; conditions: human
# [26] = molecular target: T4, P-glycoprotein (P-gp) (Homo sapiens, UniProt P08183); experiment: P-gp substrate assessment in Caco-2 bidirectional permeability study; format: in vitro ADME
# T4 construct: In a bidirectional permeability study with Caco-2 cell lines; endogenous in cells; host or cells: Caco-2
# T4 sequence (P08183 whole entry): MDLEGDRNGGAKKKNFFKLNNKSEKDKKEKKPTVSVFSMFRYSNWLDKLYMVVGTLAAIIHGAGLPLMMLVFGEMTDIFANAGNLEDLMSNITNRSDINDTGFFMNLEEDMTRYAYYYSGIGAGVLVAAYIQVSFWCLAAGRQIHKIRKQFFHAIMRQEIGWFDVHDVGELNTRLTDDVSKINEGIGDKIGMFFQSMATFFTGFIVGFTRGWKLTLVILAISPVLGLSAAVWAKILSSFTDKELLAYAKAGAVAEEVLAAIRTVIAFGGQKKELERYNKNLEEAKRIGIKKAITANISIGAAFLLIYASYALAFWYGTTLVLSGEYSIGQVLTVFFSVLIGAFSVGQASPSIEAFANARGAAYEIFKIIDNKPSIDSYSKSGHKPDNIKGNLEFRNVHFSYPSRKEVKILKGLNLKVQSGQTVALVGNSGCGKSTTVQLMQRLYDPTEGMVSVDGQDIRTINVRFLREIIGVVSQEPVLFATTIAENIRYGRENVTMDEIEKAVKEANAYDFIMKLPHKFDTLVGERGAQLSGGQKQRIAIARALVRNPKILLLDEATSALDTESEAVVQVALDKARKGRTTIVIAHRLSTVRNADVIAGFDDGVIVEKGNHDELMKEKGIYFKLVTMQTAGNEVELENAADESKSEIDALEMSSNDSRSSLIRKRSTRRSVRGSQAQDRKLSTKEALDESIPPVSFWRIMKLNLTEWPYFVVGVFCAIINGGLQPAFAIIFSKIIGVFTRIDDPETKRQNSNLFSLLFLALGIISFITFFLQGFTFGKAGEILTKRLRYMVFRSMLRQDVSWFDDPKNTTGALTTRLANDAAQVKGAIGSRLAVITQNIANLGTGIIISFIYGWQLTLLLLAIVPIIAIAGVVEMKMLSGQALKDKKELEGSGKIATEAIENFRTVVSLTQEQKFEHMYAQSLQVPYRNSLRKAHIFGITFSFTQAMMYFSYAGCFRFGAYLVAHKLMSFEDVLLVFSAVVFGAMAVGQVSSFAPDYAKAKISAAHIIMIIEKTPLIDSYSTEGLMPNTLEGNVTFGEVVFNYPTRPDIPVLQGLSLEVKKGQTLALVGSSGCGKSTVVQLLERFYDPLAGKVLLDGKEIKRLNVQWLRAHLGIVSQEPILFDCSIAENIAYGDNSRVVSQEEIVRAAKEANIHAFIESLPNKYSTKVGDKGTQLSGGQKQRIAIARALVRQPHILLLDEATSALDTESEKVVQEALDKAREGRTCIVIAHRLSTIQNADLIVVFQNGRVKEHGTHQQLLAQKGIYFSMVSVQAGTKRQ
# [27] = molecular target: CYP2B6 (Homo sapiens, UniProt P20813); experiment: direct CYP inhibition; format: in vitro ADME
# CYP2B6, sequence (P20813 whole entry): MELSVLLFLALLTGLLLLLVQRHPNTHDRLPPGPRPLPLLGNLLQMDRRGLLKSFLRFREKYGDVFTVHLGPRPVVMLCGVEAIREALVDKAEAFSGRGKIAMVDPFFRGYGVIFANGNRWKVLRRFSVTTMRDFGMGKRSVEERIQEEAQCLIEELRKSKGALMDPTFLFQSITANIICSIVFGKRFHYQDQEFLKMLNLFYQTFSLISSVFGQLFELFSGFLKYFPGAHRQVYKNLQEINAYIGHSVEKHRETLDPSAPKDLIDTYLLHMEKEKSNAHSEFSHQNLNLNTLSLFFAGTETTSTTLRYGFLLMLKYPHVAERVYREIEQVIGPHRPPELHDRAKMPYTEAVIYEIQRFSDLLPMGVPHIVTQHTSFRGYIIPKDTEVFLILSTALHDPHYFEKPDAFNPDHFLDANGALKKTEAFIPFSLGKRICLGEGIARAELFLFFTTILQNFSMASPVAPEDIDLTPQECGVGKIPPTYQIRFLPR
# T1 sequence (P08183 whole entry): as the sequence (P08183 whole entry) above
# CYP2C9, sequence (P11712 whole entry): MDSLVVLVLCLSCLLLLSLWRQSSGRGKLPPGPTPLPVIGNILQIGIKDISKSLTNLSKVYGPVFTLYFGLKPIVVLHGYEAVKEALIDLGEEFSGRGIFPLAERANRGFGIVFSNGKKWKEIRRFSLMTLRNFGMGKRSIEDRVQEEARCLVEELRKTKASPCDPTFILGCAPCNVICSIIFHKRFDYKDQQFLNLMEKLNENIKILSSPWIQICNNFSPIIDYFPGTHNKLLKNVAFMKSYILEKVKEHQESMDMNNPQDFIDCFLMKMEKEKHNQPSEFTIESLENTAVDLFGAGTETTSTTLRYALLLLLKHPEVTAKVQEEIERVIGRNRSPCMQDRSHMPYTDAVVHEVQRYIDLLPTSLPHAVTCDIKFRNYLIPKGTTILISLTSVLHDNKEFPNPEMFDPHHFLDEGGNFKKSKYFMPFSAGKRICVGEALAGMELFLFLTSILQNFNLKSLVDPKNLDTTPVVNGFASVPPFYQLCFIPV
compound,measurement,setting,value
"COCCNCc1ccc(-c2cc3nccc(Oc4ccc(NC(=O)C5(C(=O)Nc6ccc(F)cc6)CC5)cc4F)c3s2)nc1 [sitravatinib, N-(3-Fluoro-4-(2-(5-((2-methoxyethylamino)methyl)pyridin-2-yl)thieno[3,2-b]pyridin-7-yloxy)phenyl)-N-(4-fluorophenyl)cyclopropane-1,1-dicarboxamide]",IC50,[1],11 µM
same,IC50,[2],0.838 µM
same,dose proportionality of Cmax and AUC,[3]; doses up to 200 mg,dose proportional
same,half-life,"[3]; human, in vivo, oral administration, read-out: mean elimination half life",42 to 58 h
same,time- or metabolism-dependent inhibition of any of the CYP enzymes evaluated,[4],little or no evidence
same,anti-tumor activity in human xenograft tumor models,[5],anti tumor efficacy
same,anti-tumor activity in human xenograft tumor models,[5]; listed as Sitravatinib,tumor regression
same,phosphorylation and kinase dependent function,[6],inhibited phosphorylation and kinase dependent function
same,IC50,[7],1.51 µM
same,oncogenic functions associated with target RTKs,[8],inhibited oncogenic functions
same,vascular pressures,[9],Minor increases
same,concentration at 6 hr,[9]; 4 mg/kg,72 ng/mL
same,"neurological functional observation battery and respiratory evaluations (tidal volume, respiration rate, minute volume)",[10],did not reveal any sitravatinib related effects
same,direct inhibition of CYP2A6,[11],little or no evidence
same,IC50,[12],1.9 µM
same,inhibition of kinase activity,[13]; biochemical assays,"potent, concentration-dependent inhibition"
same,potency against intended clinical targets,[13]; generally,less than 0.1 μM
same,direct inhibition of CYP2E1,[14],little or no evidence
same,IC50,[15],2.9 µM
same,bound to human plasma proteins,[16],98.6%
same,IC50,[17],10 µM
same,substrate of BCRP,[18],not a substrate
same,permeability classification,[19],highly permeable
same,IC50,[20],0.6 µM
same,inhibition of a closely related spectrum of tyrosine kinases,[21],potent inhibition
same,expression of PD-L1 on tumor cells,[22],increase expression of PD-L1
same,direct inhibition of CYP1A2,[23],little or no evidence
same,systemic MDSCs,[24],reduces the number
same,systemic/spleen CD4+ and CD8+ T lymphocytes,[24],increases the proliferation and fraction
same,CYP enzymes involved in metabolism,[25],"multiple enzymes, including CYP 1A2, 2A6, 2B6, 2C8, 2C9, 2D6, 2E1, and 3A4 are involved"
same,substrate of P-gp,[26],not a substrate
same,IC50,[27],> 20 µM
same,inhibition at 20 µM,"[27]; human, highest concentration evaluated (20 μM)",~50%

# From US20230321062A1, “COMBINATION THERAPIES” (Mirati Therapeutics, Inc., priority 2020, published 2023)
